The record followed here is patent publication EP4806891A1 (Kangbaida (Sichuan) Biotechnology Co., Ltd., priority 2023, dated 2025).

What is called IC50 is the midpoint of a concentration-inhibition curve.

In the assay the target is T1, HEK-Blue-hTLR8 cells (Homo sapiens, UniProt Q9NR97).
T1 construct: expressed in transfected cells; host or cells: HEK-Blue-hTLR8 cells (HEK293-derived reporter line)
T1 sequence (Q9NR97 27-1041): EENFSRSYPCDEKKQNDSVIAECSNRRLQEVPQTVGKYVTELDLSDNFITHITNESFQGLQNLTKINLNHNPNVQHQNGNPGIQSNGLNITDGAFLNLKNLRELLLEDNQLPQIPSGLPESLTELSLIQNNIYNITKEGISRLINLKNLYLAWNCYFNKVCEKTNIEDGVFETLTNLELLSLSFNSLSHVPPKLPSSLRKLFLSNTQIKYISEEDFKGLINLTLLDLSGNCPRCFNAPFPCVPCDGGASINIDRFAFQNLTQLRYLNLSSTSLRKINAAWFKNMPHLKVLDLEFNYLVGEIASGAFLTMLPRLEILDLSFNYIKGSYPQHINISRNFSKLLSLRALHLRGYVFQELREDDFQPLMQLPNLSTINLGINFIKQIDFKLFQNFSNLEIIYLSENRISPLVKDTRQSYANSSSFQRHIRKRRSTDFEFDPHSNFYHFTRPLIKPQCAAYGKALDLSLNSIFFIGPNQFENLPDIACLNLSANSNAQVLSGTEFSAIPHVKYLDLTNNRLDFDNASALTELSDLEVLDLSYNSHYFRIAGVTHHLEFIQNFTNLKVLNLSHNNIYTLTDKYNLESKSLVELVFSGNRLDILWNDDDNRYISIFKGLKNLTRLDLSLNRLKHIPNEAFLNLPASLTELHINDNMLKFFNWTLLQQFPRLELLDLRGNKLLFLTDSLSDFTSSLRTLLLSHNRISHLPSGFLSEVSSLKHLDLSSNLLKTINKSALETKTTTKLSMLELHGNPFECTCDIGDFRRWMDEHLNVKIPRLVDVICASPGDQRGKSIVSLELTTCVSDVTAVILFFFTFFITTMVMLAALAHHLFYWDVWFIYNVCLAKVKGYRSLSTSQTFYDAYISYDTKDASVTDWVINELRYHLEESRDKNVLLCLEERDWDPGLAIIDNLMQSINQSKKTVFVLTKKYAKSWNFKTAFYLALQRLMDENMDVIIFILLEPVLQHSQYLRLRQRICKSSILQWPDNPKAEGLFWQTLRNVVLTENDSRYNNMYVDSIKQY
The assay can be described thus: HEK-Blue-hTLR8 cell inhibition assay. The format is cell-based. The conditions noted are these: R848 3 µM, 16 h, OD 620 nm, read-out: TLR8 IC50. Put shortly:
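Cells were pre-incubated 4 h, then co-treated 16 h at 37 °C with compound (10 doses, 0.5–10000 nM final) plus R848 (0.8 µM for TLR7, 3 µM for TLR8) or ODN2006 (1 µM, TLR9). Reporter OD620 gave inhibition relative to DMSO blank and agonist-only controls; IC50 came from curve fitting.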

Molecules are shown by their SMILES.

Regarding `CN(C)[C@H]1CC[C@H](c2nnc([C@]34CN(c5ccc(C#N)c6ncccc56)C[C@@]3(C(F)(F)F)C4)o2)CC1` [Compound 21, 5-((1S,5R)-1-(5-((1R,4S)-4-(dimethylamino)cyclohexyl)-1,3,4-oxadiazol-2-yl)-5-(trifluoromethyl)-3-azabicyclo[3.1.0]hexan-3-yl)quinoline-8-carbonitrile], the IC50 is less than 100 nM.

Consider `N#Cc1ccc(N2C[C@]3(c4nnc(C5=CCNC5)o4)C[C@]3(C(F)(F)F)C2)c2cccnc12` [Compound 22, 5-((1S,5R)-1-(5-(2,5-dihydro-1H-pyrrol-3-yl)-1,3,4-oxadiazol-2-yl)-5-(trifluoromethyl)-3-azabicyclo[3.1.0]hexan-3-yl)quinoline-8-carbonitrile], for which the IC50 was less than 100 nM. The same measure for `CN1CCC(n2cnc([C@]34CN(c5ccc(C#N)c6ncccc56)C[C@@]3(C(F)(F)F)C4)n2)CC1` [Compound 23, 5-((1S,5R)-1-(1-(1-methylpiperidin-4-yl)-1H-1,2,4-triazol-3-yl)-5-(trifluoromethyl)-3-azabicyclo[3.1.0]hexan-3-yl)quinoline-8-carbonitrile]: less than 100 nM; for `N#Cc1ccc(N2C[C@]3(c4nnc(C#CCN5CCOCC5)o4)C[C@]3(C(F)(F)F)C2)c2cccnc12` [Compound 24, 5-((1S,5R)-1-(5-(3-morpholinoprop-1-yn-1-yl)-1,3,4-oxadiazol-2-yl)-5-(trifluoromethyl)-3-azabicyclo[3.1.0]hexan-3-yl)quinoline-8-carbonitrile]: less than 100 nM. On to `CN(C)CC#Cc1nnc([C@]23CN(c4ccc(C#N)c5ncccc45)C[C@@]2(C(F)(F)F)C3)o1` [Compound 25, 5-((1S,5R)-1-(5-(3-(dimethylamino)prop-1-yn-1-yl)-1,3,4-oxadiazol-2-yl)-5-(trifluoromethyl)-3-azabicyclo[3.1.0]hexan-3-yl)quinoline-8-carbonitrile], for which the IC50 is less than 100 nM. The same measure for `CC1(C)CC(Cc2nnc([C@]34CN(c5ccc(C#N)c6ncccc56)C[C@@]3(C(F)(F)F)C4)o2)CC(C)(C)N1` [Compound 26, 5-((1S,5R)-1-(5-((2,2,6,6-tetramethylpiperidin-4-yl)methyl)-1,3,4-oxadiazol-2-yl)-5-(trifluoromethyl)-3-azabicyclo[3.1.0]hexan-3-yl)quinoline-8-carbonitrile]: less than 100 nM. Regarding `N#Cc1ccc(N2C[C@]3(c4nnc(N5CCOCC5)o4)C[C@]3(C(F)(F)F)C2)c2cccnc12` [Compound 27, 5-((1S,5R)-1-(5-morpholino-1,3,4-oxadiazol-2-yl)-5-(trifluoromethyl)-3-azabicyclo[3.1.0]hexan-3-yl)quinoline-8-carbonitrile], the IC50 is less than 1000 nM. For the molecule `CN1CC(Cc2nnc([C@]34CN(c5ccc(C#N)n6ncc(F)c56)C[C@@]3(C(F)(F)F)C4)o2)C1` [Compound 30, 3-fluoro-4-((1S,5R)-1-(5-((1-methylazetidin-3-yl)methyl)-1,3,4-oxadiazol-2-yl)-5-(trifluoromethyl)-3-azabicyclo[3.1.0]hexan-3-yl)pyrazolo[1,5-a]pyridine-7-carbonitrile], the IC50 is less than 100 nM.

Consider `CN1CCC(Oc2nnc([C@]34CN(c5ccc(C#N)n6ncc(F)c56)C[C@@]3(C(F)(F)F)C4)o2)CC1` [Compound 31, 3-fluoro-4-((1S,5R)-1-(5-((1-methylpiperidin-4-yl)oxy)-1,3,4-oxadiazol-2-yl)-5-(trifluoromethyl)-3-azabicyclo[3.1.0]hexan-3-yl)pyrazolo[1,5-a]pyridine-7-carbonitrile], for which the IC50 was less than 100 nM. The same measure for `N#Cc1ccc(N2C[C@]3(c4nnc(C5(F)CNC5)o4)C[C@]3(C(F)(F)F)C2)c2cccnc12` [Compound 32, 5-((1S,5R)-1-(5-(3-Fluoroazetidin-3-yl)-1,3,4-oxadiazol-2-yl)-5-(trifluoromethyl)-3-azabicyclo[3.1.0]hexan-3-yl)quinoline-8-carbonitrile]: less than 100 nM; for `N#Cc1ccc(N2C[C@]3(c4nnc(C5CCNCC5F)o4)C[C@]3(C(F)(F)F)C2)c2cccnc12` (some centres unmarked) [Compound 33]: less than 100 nM; for `CN1CCC(c2nnc([C@]34CN(c5ccc(C#N)c6ncccc56)C[C@@]3(C(F)(F)F)C4)o2)CC1=O` (some centres unmarked) [Compound 34]: less than 1000 nM. The same measure for `N#Cc1ccc(N2C[C@]3(c4nnc(CC5CNC5)o4)C[C@]3(C(F)(F)F)C2)c2cccnc12` [Compound 35, 5-((1S,5R)-1-(5-(azetidin-3-ylmethyl)-1,3,4-oxadiazol-2-yl)-5-(trifluoromethyl)-3-azabicyclo[3.1.0]hexan-3-yl)quinoline-8-carbonitrile]: less than 1000 nM; for `CN1CC(Cc2nnc([C@]34CN(c5ccc(C#N)c6ncccc56)C[C@@]3(C(F)(F)F)C4)o2)C1` [Compound 36, 5-((1S,5R)-1-(5-((1-methylazetidin-3-yl)methyl)-1,3,4-oxadiazol-2-yl)-5-(trifluoromethyl)-3-azabicyclo[3.1.0]hexan-3-yl)quinoline-8-carbonitrile]: less than 100 nM. The same measure for `CN1CCC(Cc2nnc([C@]34CN(c5ccc(C#N)c6ncccc56)C[C@@]3(C(F)(F)F)C4)o2)CC1` [Compound 37, 5-((1S,5R)-1-(5-((1-methylpiperidin-4-yl)methyl)-1,3,4-oxadiazol-2-yl)-5-(trifluoromethyl)-3-azabicyclo[3.1.0]hexan-3-yl)quinoline-8-carbonitrile]: less than 100 nM; for `CN1CCC(Cc2nnc([C@]34CN(c5ccc(C#N)c6ncccc56)C[C@@]3(C(F)(F)F)C4)n2C)CC1` [Compound 38, 5-((1S,5R)-1-(4-methyl-5-((1-methylpiperidin-4-yl)methyl)-4H-1,2,4-triazol-3-yl)-5-(trifluoromethyl)-3-azabicyclo[3.1.0]hexan-3-yl)quinoline-8-carbonitrile]: less than 1000 nM. As to `CN1CC(c2nnc([C@]34CN(c5ccc(C#N)c6ncccc56)C[C@@]3(C(F)(F)F)C4)o2)C1` [Compound 39, 5-((1S,5R)-1-(5-(1-methylazetidin-3-yl)-1,3,4-oxadiazol-2-yl)-5-(trifluoromethyl)-3-azabicyclo[3.1.0]hexan-3-yl)quinoline-8-carbonitrile], the IC50 was less than 100 nM. The same measure for `N#Cc1ccc(N2C[C@]3(c4nnc(CN5CCOCC5)o4)C[C@]3(C(F)(F)F)C2)c2cccnc12` [Compound 40, 5-((1S,5R)-1-(5-(morpholinomethyl)-1,3,4-oxadiazol-2-yl)-5-(trifluoromethyl)-3-azabicyclo[3.1.0]hexan-3-yl)quinoline-8-carbonitrile]: less than 1000 nM; for `N#Cc1ccc(N2C[C@]3(c4nnc(CN5CCCC5)o4)C[C@]3(C(F)(F)F)C2)c2cccnc12` [Compound 41, 5-((1S,5R)-1-(5-(Pyrrolidin-1-ylmethyl)-1,3,4-oxadiazol-2-yl)-5-(trifluoromethyl)-3-azabicyclo[3.1.0]hexan-3-yl)quinoline-8-carbonitrile]: less than 1000 nM. `CN(C)Cc1nnc([C@]23CN(c4ccc(C#N)c5ncccc45)C[C@@]2(C(F)(F)F)C3)o1` [Compound 42, 5-((1S,5R)-1-(5-((dimethylamino)methyl)-1,3,4-oxadiazol-2-yl)-5-(trifluoromethyl)-3-azabicyclo[3.1.0]hexan-3-yl)quinoline-8-carbonitrile]: the IC50 is less than 1000 nM. Consider `N#Cc1ccc(N2C[C@]3(c4nnc(CCN5CCOCC5)o4)C[C@]3(C(F)(F)F)C2)c2cccnc12` [Compound 43, 5-((1S,5R)-1-(5-(morpholinoethyl)-1,3,4-oxadiazol-2-yl)-5-(trifluoromethyl)-3-azabicyclo[3.1.0]hexan-3-yl)quinoline-8-carbonitrile], for which the IC50 was less than 100 nM. The same measure for `Cn1c(CN2CCCC2)nnc1[C@]12CN(c3ccc(C#N)c4ncccc34)C[C@@]1(C(F)(F)F)C2` [Compound 44, 5-((1S,5R)-1-(4-methyl-5-(pyrrolidin-1-ylmethyl)-4H-1,2,4-triazol-3-yl)-5-(trifluoromethyl)-3-azabicyclo[3.1.0]hexan-3-yl)quinoline-8-carbonitrile]: more than 1000 nM; for `N#Cc1ccc(N2C[C@]3(c4nnc(C5CNCC(F)C5)o4)C[C@]3(C(F)(F)F)C2)c2cccnc12` (stereo partly drawn) [Compound 45, 5-((1R,5S)-1-((difluoro-3-methyl)-12-fluoraneyl)-5-(5-(5-fluoropiperidin-3-yl)-1,3,4-oxadiazol-2-yl)-3-azabicyclo[3.1.0]hexan-3-yl)quinoline-8-carbonitrile]: less than 100 nM.
